Data on five substances can be found in US9833497B2, “Human originated EGF domain proteins and use of the same” (CHENGDU SOURCEBIO LIMITED-LIABILITY COMPANY, priority 2013, dated 2017).

Broadly, the MIC is the lowest concentration that inhibits growth of the organism.

Assay type in all cases: cell-based
In test [1] the test system is E. coli DH5α. Description: Antibacterial activity: MIC and growth curve against E. coli DH5α in 96-well plate. Conditions: minimal inhibitory concentration against E. coli DH5α; 96-well plate, 5×10^5 CFU/mL, 37° C., judged after 8 h. In a few lines:
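Log-phase bacteria (OD600 ~0.5) resuspended in LB at 5×10^5 CFU/mL, exposed to recombinant protein at 50, 25, 12.5 μg/mL final in triplicate, 37 °C shaking at 175 rpm. OD600 read every 30 min; MIC is lowest concentration showing no growth.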

Test [2] has as its system E. coli BL21. The experiment in a line: MIC against Gram-negative bacteria: E. coli BL21. Conditions: 5×10^5 CFU/mL. An outline of the steps: (§1)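 LB broth cultures at McFarland 0.5, spun down, resuspended, diluted to 5×10^5 CFU/mL final. Two-fold serial dilutions of purified human EGF domain proteins, triplicate. 37° C, 175 rpm shaking. Endpoint: no visible growth.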
Test [3] concerns Moraxella catarrhalis. The experiment in a line: MIC against Gram-negative bacteria: Moraxella catarrhalis. The conditions noted are these: 5×10^5 CFU/mL. In a few lines:
as §1

For test [4], the system named is Enterobacter cloacae. The experiment in a line: MIC against Gram-negative bacteria: Enterobacter cloacae. The conditions noted are these: 5×10^5 CFU/mL. In a few lines: as §1
Test [5] concerns Serratia marcescens. Description: MIC against Gram-negative bacteria: Serratia marcescens. Conditions: 5×10^5 CFU/mL. In a few lines:
as §1

Test [6] has as its system Aeromonas hydrophila. The experiment in a line: MIC against Gram-negative bacteria: Aeromonas hydrophila. Conditions: 5×10^5 CFU/mL. An outline of the steps:
as §1

Test [7] relates to Proteus vulgaris. The experiment in a line: MIC against Gram-negative bacteria: Proteus vulgaris. Conditions: 5×10^5 CFU/mL. In a few lines:
as §1

Test [8] has as its system Klebsiella pneumonia. The experiment in a line: MIC against Gram-negative bacteria: Klebsiella pneumonia. The conditions noted are these: 5×10^5 CFU/mL. An outline of the steps:
as §1

Test [9] has as its system Pseudomonas aeruginosa. The experiment in a line: MIC against Gram-negative bacteria: Pseudomonas aeruginosa. Conditions: 5×10^5 CFU/mL. An outline of the steps: as §1
Test [10] relates to Proteus mirabilis. The experiment in a line: MIC against Gram-negative bacteria: Proteus mirabilis. Conditions: 5×10^5 CFU/mL. An outline of the steps: as §1
Test [11] deals with Citrobacter diversus. The experiment in a line: MIC against Gram-negative bacteria: Citrobacter diversus. The conditions noted are these: 5×10^5 CFU/mL. An outline of the steps:
as §1

[12] abbreviates: E. coli BL21, 10 h cultivation at 37° C.
[13] abbreviates: E. coli BL21, 96-well plate, 37° C., 10 h.
[14] abbreviates: Moraxella catarrhalis, 96-well plate, 37° C., 10 h.
Setting [15] is: Enterobacter cloacae, 96-well plate, 37° C., 10 h.
[16] abbreviates: Serratia marcescens, 96-well plate, 37° C., 10 h.
[17] abbreviates: Aeromonas hydrophila, 96-well plate, 37° C., 10 h.
[18] abbreviates: Proteus vulgaris, 96-well plate, 37° C., 10 h.
Setting [19] is: Klebsiella pneumonia, 96-well plate, 37° C., 10 h.
The mark [20] stands for this setting: Pseudomonas aeruginosa, 96-well plate, 37° C., 10 h.
Where [21] appears, read: Proteus mirabilis, 96-well plate, 37° C., 10 h.
[22] abbreviates: Citrobacter diversus, 96-well plate, 37° C., 10 h.

“PRT768 (AIDYCSFGNHSCQHECVSTPGGPRCHCREGHDLQPDGRSCQ; listed as Homo sapiens)”: in test [1], the MIC turned out to be 12.5 µg/mL. The “MIC (μg/mL) E. coli BL21” value in test [2] (setting [12]) was 50 µg/mL. Besides, the “MIC (μg/mL) M. catarrhalis” value in test [3] (M. catarrhalis, 10 h cultivation at 37° C.) was 25 µg/mL. The “MIC (μg/mL) E. cloacae” value in test [4] (E. cloacae, 10 h cultivation at 37° C.) stood at 50 µg/mL. Further, the “MIC (μg/mL) S. marcescens” value in [5] (S. marcescens, 10 h cultivation at 37° C.) came to 12.5 µg/mL. Besides, in [6] (A. hydrophila, 10 h cultivation at 37° C.), the “MIC (μg/mL) A. hydrophila” value was 12.5 µg/mL. Further, in [7] (P. vulgaris, 10 h cultivation at 37° C.), the “MIC (μg/mL) P. vulgaris” value worked out at 25 µg/mL. Moreover, the “MIC (μg/mL) K. pneumonia” value in test [8] (K. pneumonia, 10 h cultivation at 37° C.) came to 12.5 µg/mL. Moreover, the “MIC (μg/mL) P. aeruginosa” value in test [9] (P. aeruginosa, 10 h cultivation at 37° C.) was found to be 25 µg/mL. Also, the “MIC (μg/mL) P. mirabilis” value in [10] (P. mirabilis, 10 h cultivation at 37° C.) was found to be 12.5 µg/mL. Moreover, the “MIC (μg/mL) C. diversus” value in [11] (C. diversus, 10 h cultivation at 37° C.) was found to be 50 µg/mL.

Consider “PRT1496 (EISKCPQPCRNGGKCIGKSKCKCSKGYQGDLCS; listed as Homo sapiens)”, for which, in [1], the MIC turned out to be 50 µg/mL. Also, in test [2] (setting [13]), the “MIC (μg/mL) E. coli BL21” value was 25 µg/mL. The “MIC (μg/mL) M. catarrhalis” value in [3] (setting [14]) was 12.5 µg/mL. In addition, the “MIC (μg/mL) E. cloacae” value in [4] (setting [15]) was 100 µg/mL. Further, the “MIC (μg/mL) S. marcescens” value in test [5] (setting [16]) was determined as 25 µg/mL. Further, the “MIC (μg/mL) A. hydrophila” value in [6] (setting [17]) amounted to 50 µg/mL. Further, in test [7] (setting [18]), the “MIC (μg/mL) P. vulgaris” value came to 100 µg/mL. Also, the “MIC (μg/mL) K. pneumonia” value in test [8] (setting [19]) was 12.5 µg/mL. Moreover, the “MIC (μg/mL) P. aeruginosa” value in test [9] (setting [20]) worked out at 12.5 µg/mL. The “MIC (μg/mL) P. mirabilis” value in test [10] (setting [21]) amounted to 50 µg/mL. Moreover, the “MIC (μg/mL) C. diversus” value in [11] (setting [22]) worked out at 50 µg/mL.

For “PRT1259 (CAVNNGGCDRTCKDTATGVRCSCPVGFTLQPDGKTC; listed as Homo sapiens)”, the MIC in [1] worked out at 25 µg/mL. In test [2] (setting [13]), the “MIC against E. coli BL21” value was 50 µg/mL. The “MIC against M. catarrhalis” value in test [3] (setting [14]) amounted to 50 µg/mL. Besides, the “MIC against E. cloacae” value in test [4] (setting [15]) amounted to 25 µg/mL. In addition, the “MIC against S. marcescens” value in test [5] (setting [16]) is 12.5 µg/mL. In [6] (setting [17]), the “MIC against A. hydrophila” value worked out at 50 µg/mL. In test [7] (setting [18]), the “MIC against P. vulgaris” value worked out at 50 µg/mL. Also, in test [8] (setting [19]), the “MIC against K. pneumonia” value worked out at 12.5 µg/mL. Moreover, the “MIC against P. aeruginosa” value in test [9] (setting [20]) was determined as 25 µg/mL. Also, the “MIC against P. mirabilis” value in [10] (setting [21]) was 12.5 µg/mL. In addition, the “MIC against C. diversus” value in test [11] (setting [22]) amounted to 12.5 µg/mL.

As for “PRT506 (CNCSVAGSVSDGCTDEGQCHCVPGVAGKRCDRCAHGFYAYQDGSCTP; listed as Homo sapiens)”, the minimal inhibitory concentration (MIC) in test [1] turned out to be 25 µg/mL. Further, the “MIC against E. coli BL21” value in [2] (96-well plate, 37° C., 10 h) worked out at 12.5 µg/mL. Besides, the “MIC against M. catarrhalis” value in [3] (96-well plate, 37° C., 10 h) is 50 µg/mL. For the same substance, in test [4] (96-well plate, 37° C., 10 h), the “MIC against E. cloacae” value stood at 25 µg/mL. For the same substance, the “MIC against S. marcescens” value in test [5] (96-well plate, 37° C., 10 h) is 12.5 µg/mL. Further, in test [6] (96-well plate, 37° C., 10 h), the “MIC against A. hydrophila” value was found to be 12.5 µg/mL. For the same substance, the “MIC against P. vulgaris” value in [7] (96-well plate, 37° C., 10 h) came to 12.5 µg/mL. The “MIC against K. pneumonia” value in test [8] (96-well plate, 37° C., 10 h) is 50 µg/mL. Besides, the “MIC against P. aeruginosa” value in test [9] (96-well plate, 37° C., 10 h) was 25 µg/mL. In addition, the “MIC against P. mirabilis” value in [10] (96-well plate, 37° C., 10 h) was 25 µg/mL. For the same substance, the “MIC against C. diversus” value in test [11] (96-well plate, 37° C., 10 h) came to 25 µg/mL.

For the substance “PRT1370 (GVRSCPGDCRGRGRCESGRCMCWPGYTGRDC; listed as Homo sapiens)”, in test [1], the MIC turned out to be 25 µg/mL. The “MIC against E. coli BL21” value in [2] (setting [12]) was 12.5 µg/mL. Moreover, the “MIC against M. catarrhalis” value in test [3] (Moraxella catarrhalis, 10 h cultivation at 37° C.) turned out to be 25 µg/mL. For the same substance, in [4] (Enterobacter cloacae, 10 h cultivation at 37° C.), the “MIC against E. cloacae” value came out at 25 µg/mL. The “MIC against S. marcescens” value in test [5] (Serratia marcescens, 10 h cultivation at 37° C.) was 12.5 µg/mL. The “MIC against A. hydrophila” value in [6] (Aeromonas hydrophila, 10 h cultivation at 37° C.) stood at 25 µg/mL. Moreover, the “MIC against P. vulgaris” value in test [7] (Proteus vulgaris, 10 h cultivation at 37° C.) was found to be 25 µg/mL. For the same substance, in [8] (Klebsiella pneumonia, 10 h cultivation at 37° C.), the “MIC against K. pneumonia” value was found to be 50 µg/mL. Besides, the “MIC against P. aeruginosa” value in test [9] (Pseudomonas aeruginosa, 10 h cultivation at 37° C.) stood at 25 µg/mL. In test [10] (Proteus mirabilis, 10 h cultivation at 37° C.), the “MIC against P. mirabilis” value stood at 50 µg/mL. Moreover, in test [11] (Citrobacter diversus, 10 h cultivation at 37° C.), the “MIC against C. diversus” value is 12.5 µg/mL.
